Measured values taken from BigSolDB 2.1.

Br.Fc1ccc(NC2=NCCC3(CCCCC3)[Se]2)cc1
solubility (mole fraction) (in n-hexane, 293.15 K): 1.27e-06 | solubility (mole fraction) (in n-hexane, 298.15 K): 1.59e-06 | solubility (mole fraction) (in n-hexane, 303.15 K): 1.9e-06 | solubility (mole fraction) (in n-hexane, 308.15 K): 2.35e-06 | solubility (mole fraction) (in n-hexane, 313.15 K): 2.89e-06 | solubility (mole fraction) (in n-octanol, 293.15 K): 0.003 | solubility (mole fraction) (in n-octanol, 298.15 K): 0.0036 | solubility (mole fraction) (in n-octanol, 303.15 K): 0.0042 | solubility (mole fraction) (in n-octanol, 308.15 K): 0.0048 | solubility (mole fraction) (in n-octanol, 313.15 K): 0.0055

Br.CC(C)c1ccc(NC2=NCCC3(CCCCC3)[Se]2)cc1
solubility (mole fraction) (in n-hexane, 293.15 K): 4.69e-06 | solubility (mole fraction) (in n-hexane, 298.15 K): 5.82e-06 | solubility (mole fraction) (in n-hexane, 303.15 K): 7.39e-06 | solubility (mole fraction) (in n-hexane, 308.15 K): 8.84e-06 | solubility (mole fraction) (in n-hexane, 313.15 K): 1.11e-05 | solubility (mole fraction) (in n-octanol, 293.15 K): 0.0484 | solubility (mole fraction) (in n-octanol, 298.15 K): 0.0551 | solubility (mole fraction) (in n-octanol, 303.15 K): 0.0647 | solubility (mole fraction) (in n-octanol, 308.15 K): 0.0728 | solubility (mole fraction) (in n-octanol, 313.15 K): 0.0831

Br.c1ccc(NC2=NCCC3(CCCCC3)[Se]2)cc1
solubility (mole fraction) (in n-hexane, 293.15 K): 4.94e-06 | solubility (mole fraction) (in n-hexane, 298.15 K): 5.94e-06 | solubility (mole fraction) (in n-hexane, 303.15 K): 7.1e-06 | solubility (mole fraction) (in n-hexane, 308.15 K): 8.46e-06 | solubility (mole fraction) (in n-hexane, 313.15 K): 9.98e-06 | solubility (mole fraction) (in n-octanol, 293.15 K): 0.0186 | solubility (mole fraction) (in n-octanol, 298.15 K): 0.0229 | solubility (mole fraction) (in n-octanol, 303.15 K): 0.0278 | solubility (mole fraction) (in n-octanol, 308.15 K): 0.0329 | solubility (mole fraction) (in n-octanol, 313.15 K): 0.0385
